The target of series [1] is GLUT5. As to conditions: human MCF7 breast cancer cells; cited from earlier work.
The target in series [2] is T1, GLUT5 (Mus musculus, UniProt Q9WV38).
T1 construct: GLUT5-expressing murine mammary carcinoma cancer cells (EMT6); endogenous in cells; host or cells: EMT6 murine mammary carcinoma cells
T1 sequence (Q9WV38 1-501): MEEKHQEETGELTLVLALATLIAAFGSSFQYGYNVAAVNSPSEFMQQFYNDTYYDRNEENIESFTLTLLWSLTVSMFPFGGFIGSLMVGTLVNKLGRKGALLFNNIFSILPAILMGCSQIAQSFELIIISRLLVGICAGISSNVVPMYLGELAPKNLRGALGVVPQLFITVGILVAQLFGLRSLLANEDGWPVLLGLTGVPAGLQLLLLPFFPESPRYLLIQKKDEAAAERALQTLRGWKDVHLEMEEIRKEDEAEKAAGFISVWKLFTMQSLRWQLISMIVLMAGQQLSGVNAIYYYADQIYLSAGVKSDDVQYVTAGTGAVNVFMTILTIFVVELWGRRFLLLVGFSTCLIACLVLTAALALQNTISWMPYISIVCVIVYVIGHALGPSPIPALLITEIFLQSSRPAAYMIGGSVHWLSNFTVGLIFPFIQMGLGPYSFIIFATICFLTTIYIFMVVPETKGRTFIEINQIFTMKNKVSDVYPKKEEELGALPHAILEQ
Put plainly: In vitro inhibition of 6-[18F]FDF cell uptake (competition) in EMT6 cells. As to conditions: for IC50: 60 min incubation, glucose-free Krebs-Ringer buffer, mean ± SEM from n data points out of 2-4 experiments, read-out: IC50 (mM) against 6-[18F]FDF uptake into EMT6 cells; for Fold better inhibition of 6-[18F]FDF uptake relative to 6-FDF: compared with reference 6-FDF; for Inhibition of 6-[18F]FDF uptake into EMT6 cells (in words): selected concentration range 10^-8-10^-3 and 3 x 10^-2 M. The series is classed as cell-based, murine. How it is done: EMT6 cells were grown to confluence in 12-well cell culture plates with media renewal every 2 days. One hour prior to the experiment, cell culture media was removed and the plates were washed twice with glucose-free Krebs–Ringer buffer solution. To each well, 1 mL of glucose-free Krebs–Ringer buffer solution was added and incubation at 37 °C was continued for 1 h under the glucose-free condition. After one hour, Krebs–Ringer buffer was removed.
After 60 min incubation time, radiotracer uptake was stopped with 1 mL of ice-cold PBS, and the cells were washed twice with PBS and lysed in 0.4 mL radioimmunoprecipitation assay buffer (RIPA buffer). Radioactivity in the cell lysates was then determined as counts per minute (CPM) using a WIZARD2 automatic γ-counter (Perkin Elmer, Waltham, MA, USA) and converted to the radioactivity dose SI unit Becquerel (Bq). Data was analyzed as percentage of maximum uptake of 6-[^18F]FDF. Graphs were constructed using GraphPad Prism 5.0 (GraphPad Software, San Diego, CA, USA) and half-maximum inhibition concentrations (IC50) were determined by graphical analysis of the concentration-inhibition curves.
To analyze the interaction of these novel C-3-modified 2,5-anhydro-D-mannitol analogs with GLUT5, in vitro experiments were carried out in GLUT5-expressing murine mammary carcinoma cancer cells (EMT6) to determine how the varied substitution patterns would impact GLUT5 binding. Furthermore, fructose derivative 6-FDF was used as the reference compound as it was analyzed for its uptake profile through GLUT5 in the past. […] Therefore, when designing novel specific inhibitors for the GLUT5 transporter, it would be reasonable to expect their GLUT5 transport also in a millimolar concentration range, especially when using a radiometric assay that was established with radiolabeled fructose derivative 6-[^18F]FDF in murine EMT6 breast cancer cells and with inhibition by D-fructose and reference compound 6-FDF as internal controls.

The subject of series [3] is GLUT5. More on the design: method as in PMID 26306809. As to conditions: read-out: IC50 against D-[14C]fructose; cited from earlier work.
Series [4] has as its system GLUT5. More on the design: method as in PMID 27074918. As to conditions: MCF7 human breast cancer cells; read-out: IC50 against D-[14C]fructose; cited from earlier work.
The subject of series [5] is GLUT5. More on the design: method as in PMID 27074918. The conditions noted are these: proteoliposome GLUT5 expression system; read-out: IC50 against D-[14C]fructose; cited from earlier work.
The nature of series [6]: Solubility in Krebs-Ringer buffer. The class given is physicochemical.
Another series deals with GLUT2. Also noted: method as in PMID 29142019. As to conditions: murine EMT6 cells; read-out: IC50 against uptake of [18F]FDG; cited from earlier work.
The test system of series [7] is GLUT5. The conditions noted are these: read-out: Affinity (Km) of fructose transport through GLUT5; D-[14C]fructose; GLUT5 (human isoform)-expressing oocytes or brush-border membrane vesicles from rat and human intestine; cited from earlier work.
For series [8], the target named is T1, GLUT5. As to conditions: cited from earlier work.
The test system of a further series is GLUT1. Also noted: method as in PMID 18398011, PMID 9299540, PMID 15457374, doi:10.1002/bmb.2003.494031030227. The conditions noted are these: cited from earlier work.

Molecules are shown by their SMILES. Like-named read-outs stand apart in the source and are kept apart here.

The Ki is a measure of affinity in units of concentration, obtained from inhibition or displacement. A word on the Km: it is the substrate concentration at which the rate is half of its maximum.

On to `O=[N+]([O-])c1ccc(NC[C@H]2O[C@H](CO)[C@@H](O)[C@@H]2O)c2nonc12` [NBDM, 1-[N-(7-nitrobenz-2-oxa-1,3-diazole-4-yl)amino]-2,5-anhydro-D-mannitol], for which, at GLUT5 [1], the Ki is 2.3 to 2.7 mM and the “Transport efficiency through GLUT5 relative to D-fructose” value is given as “transported twice as efficiently as D-fructose”. In the case of `O=C(O)c1cc(NC(=S)N[C@H]2[C@H](O)[C@@H](CO)O[C@@H]2CO)ccc1-c1c2ccc(=O)cc-2oc2cc(O)ccc12` [Compound 8], the IC50 on GLUT5 [2] was ~20 mM. In the case of `CN(C)c1cccc2c(S(=O)(=O)N[C@H]3[C@H](O)[C@@H](CO)O[C@@H]3CO)cccc12` [Compound 6, 3-deoxy-3-[N-(5-(dimethylamino)naphthalene-1-sulfonamide)amino]-2,5-anhydro-D-mannitol], at GLUT5 [2], the IC50 came out at 2.29 ± 0.18 mM and the “Fold better inhibition of 6-[18F]FDF uptake relative to 6-FDF” value is “fivefold stronger inhibitory effect”. As for `C=C1C[C@@]23CC[C@H]4[C@@](C)(CCC[C@@]4(C)C(=O)O[C@@H]4O[C@H](CO)[C@@H](O)[C@H](O)[C@H]4O)[C@@H]2CC[C@]1(O[C@@H]1O[C@H](CO)[C@@H](O)[C@H](O)[C@H]1O)C3` [rubusoside], in the series on GLUT5 [3], the IC50 is 10.3 mM.

With `OC[C@H]1O[C@H](CO)[C@@H](NC(=S)Nc2ccc(F)cc2)[C@@H]1O` [Compound 7, 3-deoxy-3-[N-(1-(4-fluorophenyl)thiourea)amino]-2,5-anhydro-D-mannitol], the “Inhibition of 6-[18F]FDF uptake into EMT6 cells (in words)” value (“Inhibition … (in words)” below) at GLUT5 [2] is “no effect on 6-[^18F]FDF uptake”. Turning to `O=C(CO/N=C/c1ccc(F)cc1)N[C@H]1[C@H](O)[C@@H](CO)O[C@@H]1CO` [Compound 10, 3-deoxy-3-[N-(2-(((4-fluorobenzylidene)amino)oxy)acetamide)amino]-2,5-anhydro-D-mannitol], on GLUT5 [2], the “Fold better inhibition of 6-[18F]FDF uptake relative to 6-FDF” value was ~ 10 fold.

Consider `O=S(=O)(N[C@H]1[C@H](O)[C@@H](CO)O[C@@H]1CO)c1ccc(F)cc1` [Compound 4, 3-deoxy-3-[N-(4-fluorobenzenesulfonamide)amino]-2,5-anhydro-D-mannitol], for which the IC50 on GLUT5 [2] was ~6 mM. Consider `O=C(N[C@H]1[C@H](O)[C@@H](CO)O[C@@H]1CO)c1ccc(F)cc1` [Compound 9, 3-deoxy-3-[N-(4-fluorobenzamide)amino]-2,5-anhydro-D-mannitol], for which, at GLUT5 [2], the “Inhibition … (in words)” value is “no inhibitory activity in the selected concentration range”. In the case of `CS(=O)(=O)c1ccc(Nc2ccc3c(c2)OCO3)c([N+](=O)[O-])c1` [MSNBA, N-(4-methanesulfonyl-2-nitrophenyl)-2H-1,3-benzodioxol-5-amine], the values for the IC50 in the series on GLUT5 [4] and with GLUT5 [5] were 5.8 mM and 0.1 mM, respectively. Regarding `O=C(CO)[C@@H](O)[C@H](O)[C@H](O)CO` [Fructose, D-fructose], in [6], the Solubility entry was “freely soluble”. Besides, in the series with GLUT2, the IC50 is 80 mM. Further, the Michaelis-Menten constant (Km) with GLUT5 [7] was 11 to 15 mM. On to `O=S(=O)(N[C@H]1[C@H](O)[C@@H](CO)O[C@@H]1CO)c1ccc(F)cc1C(F)(F)F` [Compound 5, 3-deoxy-3-[N-(4-fluoro-2-(trifluoromethyl)benzenesulfonamide)amino]-2,5-anhydro-D-mannitol], for which the “Inhibition … (in words)” value at GLUT5 [2] is “failed to inhibit 6-[^18F] FDF uptake transport at all”. Take `OC[C@H]1O[C@H](CF)[C@@H](O)[C@@H]1O` [1-FDAM, 1-deoxy-1-fluoro-2,5-anhydro-mannitol]: at GLUT5 [8] (estimated earlier by the authors, read-out: IC50 against the uptake of the probe 6-[18F]FDF), the IC50 was ~20 mM.

For `O=C(CO)[C@@H](O)[C@H](O)[C@H](O)CF` [6-FDF, 6-deoxy-6-fluoro-D-fructose], the IC50 was 17 ± 0.75 mM on GLUT5 [2] and 19 mM on GLUT5 [8] (murine EMT6 breast cancer cells, read-out: IC50 (half-maximum inhibition concentration) against 6-[18F]FDF uptake). On to `OC[C@H]1OC(O)[C@H](O)[C@@H](O)[C@@H]1O` (stereo partly shown) [glucose], for which the “Affinity of glucose transport through GLUT1 (K4)” value with GLUT1 is 1 to 2 mM.

Turning to `O=C(N[C@H]1[C@H](O)[C@@H](CO)O[C@@H]1CO)c1cc2ccc(OCCF)cc2oc1=O` [Compound 11, 3-deoxy-3-[N-(7-(2-fluoroethoxy)-2-oxo-2H-chromene-3-carboxamide)amino]-2,5-anhydro-D-mannitol], at GLUT5 [2], the IC50 was determined as 1.71 ± 0.08 mM and the “Fold better inhibition of 6-[18F]FDF uptake relative to 6-FDF” value is reported as ~ 10 fold.

The values above are taken from publication PMC9032776, “Towards Selective Binding to the GLUT5 Transporter: Synthesis, Molecular Dynamics and In Vitro Evaluation of Novel C-3-Modified 2,5-Anhydro-D-mannitol Analogs” (Pharmaceutics, 2022).
